These results are taken from patent publication US12472159B2, “Compositions comprising amino acids for use in the prevention and treatment of chemotherapy side effects” (Professional Dietetics S.p.A., priority 2020, dated 2025).

In assay [1] the test system is HL-1 cardiomyocytes. Briefly: Mitochondrial biogenesis marker mRNA levels by quantitative RT-PCR in HL-1 cardiomyocytes. It counts as cell-based, mouse. The settings on record: HL-1 cells; for mRNA levels of mitochondrial biogenesis markers (PGC-1α, NRF1, Tfam, cyt c, COX IV): agent alone vs untreated cells, α5 1% w/v or BCAAem 48 h, 1 μM DOX 16 h; for prevention of DOX-induced decrease of mitochondrial biogenesis marker mRNA: supplement 48 h with 1 μM DOX 16 h, vs DOX-treated cells. How it is done: (§1) Rules of the Declaration of Helsinki have been followed. HL-1 cardiomyocytes were obtained from W.C. Claycomb (Millipore Cat #SCC065) and plated in fibronectin/gelatin-coated flasks, grown to 70-80% confluence in Claycomb medium (Sigma-Aldrich) supplemented with 100 μM norepinephrine (from a 10 mM norepinephrine [Sigma-Aldrich] stock solution dissolved in 30 mM L-ascorbic acid [Sigma-Aldrich]), 2 mM L-glutamine, 100 U/ml penicillin, 100 μg/ml streptomycin and 10% Fetal Bovine Serum (FBS, Sigma-Aldrich). MCF-7 human breast cancer cell line (ATCC® HTB-22™) also available from P. Limonta (Pharmacological and Biomolecular Sciences, University of Milan, Milan, Italy) were cultured in pH 7.4 DMEM, containing streptomycin (100 U/ml), penicillin ([…]), and gentamicin ([…]), and supplemented with 10% FBS. Both cell types were treated with […] or α5 for 48 h and 1 μM DOX for 16 h (FIG. 1). […] The cycle number at which the various transcripts were detectable (threshold cycle, CT) was compared to that of TBP, referred to as ΔCT.

The subject of assay [2] is HL-1 cardiomyocytes. The experiment in a line: Klf15, eNOS and Raptor siRNA knockdown in HL-1 cardiomyocytes, RT-PCR and immunoblot. It counts as cell-based, mouse. The settings on record: HL-1 cells. How it is done: For the study of phospho-proteins, HL-1 cells were treated with 1% α5 for 2 h and 1 μM DOX (Doxo-HCl from Sigma-Aldrich D15D15) for the last 60 min. […] After 24 h transfection, cells were treated with 1% α5 for 24 h and 1 μM DOX for 16 h. Transfection efficacy was determined with siGLO-RISC-free nontargeting siRNA and siRNA uptake by fluorescence detection (absorbance/emission 557/570). Proteins were then extracted for Western blotting analysis.
Background: A western blot detects proteins with antibodies after separation by electrophoresis.

In assay [3] the test system is left ventricle of DOX-treated mice. The experiment in a line: Signaling pathways (eNOS, mTORC1, Sestrin2, KLF15, BCKDH) in left ventricle of mice. The assay is classed as in vivo, C57BL6/J mice.
Description: (§3) Drinking volume, food intake, and body weight were checked twice weekly. At the end of the treatment period, mice were sacrificed by cervical dislocation and hearts quickly removed and freshly used (for oxygen consumption analysis) or frozen in liquid nitrogen and stored at ˜80° C. (for mtDNA, mRNA, and protein level measurement, in addition to citrate synthase activity analysis).
(§4) Quantitative RT-PCRs were performed as previously described [3-7] with the iQ SybrGreenl SuperMix (Bio-Rad; Segrate, Italy) on an iCycler iQ real-time PCR detection system (Bio-Rad). Briefly, RNA was isolated from left ventricle using the RNeasy Tissue Mini Kit (Qiagen) or from HL-1 cells using the RNeasy Mini Kit (Qiagen). cDNA was synthesized using the iScript cDNA Synthesis Kit (Bio-Rad Laboratories).
Protein extracts were obtained from left ventricle with T-PER mammalian protein extraction reagent (Pierce, ThermoScientific, Rockford, USA) or from HL-1 cells in M-PER mammalian protein extraction reagent (Pierce, ThermoScientific, Rockford, USA), as indicated by the manufacturer, in the presence of 1 mM NaVO4, 10 mM NaF and a cocktail of protease inhibitors (Sigma-Aldrich, Milan, Italy). Protein content was determined by the bicinchoninic acid protein assay (BCA, Pierce, Euroclone, Milan, Italy), and 50 of the protein extract was separated by SDS-PAGE under reducing conditions. The separated proteins were then electrophoretically transferred to a nitrocellulose membrane (Bio-Rad Laboratories, Segrate, Italy) [3-8]. Proteins of interest were detected with specific antibodies: anti-COX IV (cytochrome c oxidase subunit IV, Cell Signaling Technology Cat #4844, Euroclone, Milan, Italy), anti-cyt c (cytochrome complex, Cell Signaling Technology Cat #4280), anti-PGC-1α (proliferator-activated receptor γ coactivator 1α, Cell Signaling Technology Cat #2178), anti-phospho-AKT (Ser473) (Cell Signaling Technology Cat #4060), anti-AKT (Cell Signaling Technology Cat #4685), anti-phospho-eNOS (Ser1177) (phospho-endothelial nitric oxide synthase, Cell Signaling Technology Cat #9571), anti-eNOS (Cell Signaling Technology Cat #9572), anti-phospho-S6 (Ser235/236) (phospho-S6, Cell Signaling Technology Cat #4858), anti-S6 (Cell Signaling Technology Cat #2217), anti-phospho-mTOR (Ser2481) (Cell Signaling Technology Cat #2974), anti-mTOR (Cell Signaling Technology Cat #2972), anti-phospho-BCKDH (Ser293) (Abcam Cat #200577), anti-BCKDH (Abcam Cat #138460), and anti-GAPDH (1:1000, Cell Signaling Technology Cat #2118) at 1:1000 dilution each. After the visualization of phospho-eNOS, phospho-AKT, phospho-mTOR, phospho-S6, and anti-phospho-BCKDH the filters were stripped with the Restore™ western blot stripping buffer (Euroclone, Milan, Italy) and further used for the visualization of total eNOS, total AKT, total mTOR, total S6, or total BCKDH. Immunostaining was performed using horseradish peroxidase-conjugated anti-rabbit or anti-mouse immunoglobulin for 1 h at room temperature. The protein was detected using SuperSignal substrate (Pierce, Euroclone, Milan, Italy) and quantified by densitometry with ImageJ image analysis software.
Assay [4] has the same test system. The experiment in a line: Mitochondrial biogenesis, mass, function and ROS defense genes in left ventricle of DOX-treated mice.
Description: as §3, §4
For mtDNA analysis, total DNA was extracted with a QIAamp DNA Extraction Kit (Qiagen). mtDNA was amplified using primers specific for the mtDNA and normalized to the 18S gene (Table 2) [9]. The mtDNA content was determined using qRT-PCR by measuring the threshold cycle ratio (ΔCT) of the mtDNA gene vs. that of a nuclear encoded gene (18S) in left ventricle of DOX-, α5- or DOX plus α5-treated mice, in addition to control untreated mice [10,11].
The activity was measured spectrophotometrically at 412 nm at 30° C. in left ventricle extracts [12,13].
Assay [5] relates to HL-1 cardiomyocytes. The experiment in a line: Signaling pathways (eNOS, S6, Sestrin2, Akt, KLF15, BCKDH) in HL-1 cardiomyocytes. It counts as cell-based, mouse. The settings on record: HL-1 cells. How it is done:
as §1, with “HTB-22TM)” for “HTB-22™)”, “Lafayette, CO) or siGENOME nontargeting siRNA using Dharmafect 1 transfection reagent. After 24 h transfection, cells” for “The cycle number at which the various transcripts”, “treated with 1% α5 for 24 h and 1 μM DOX for 16 h. Transfection efficacy” for “detectable (threshold cycle, CT)”, “determined with siGLO-RISC-free nontargeting siRNA and siRNA uptake by fluorescence detection (absorbance/emission 557/570). Proteins were then extracted for Western blotting analysis.” for “compared to that of TBP, referred to as ΔCT.”

For assay [6], the system named is HL-1 cardiomyocytes. Briefly: Citrate synthase activity in HL-1 cardiomyocytes. It counts as cell-based, mouse. The settings on record: HL-1 cells; agent alone vs untreated cells. How it is done:
(§2) Rules of the Declaration of Helsinki have been followed. HL-1 cardiomyocytes were obtained from W.C. Claycomb (Millipore Cat #SCC065) and plated in fibronectin/gelatin-coated flasks, grown to 70-80% confluence in Claycomb medium (Sigma-Aldrich) supplemented with 100 μM norepinephrine (from a 10 mM norepinephrine [Sigma-Aldrich] stock solution dissolved in 30 mM L-ascorbic acid [Sigma-Aldrich]), 2 mM L-glutamine, 100 U/ml penicillin, 100 μg/ml streptomycin and 10% Fetal Bovine Serum (FBS, Sigma-Aldrich). MCF-7 human breast cancer cell line (ATCC® HTB-22™) also available from P. Limonta (Pharmacological and Biomolecular Sciences, University of Milan, Milan, Italy) were cultured in pH 7.4 DMEM, containing streptomycin (100 U/ml), penicillin ([…]), and gentamicin ([…]), and supplemented with 10% FBS. Both cell types were treated with […] or α5 for 48 h and 1 μM DOX for 16 h (FIG. 1).

Assay [7] relates to HL-1 cardiomyocytes. Briefly: MTT viability assay of HL-1 cardiomyocytes. It counts as cell-based, mouse. The settings on record: agent alone; 1% α5 48 h or 1 μM DOX 16 h. How it is done:
as §2, with “1). HL-1 cell viability was assessed by MTT [3-(4,5-dimethylthiazol-2-yl)-2,5-diphenyltetrazolium bromide] reagent (Sigma, Milan, Italy). […] The purple formazan crystals were dissolved in 5% SDS/0.1 M HCl (100 μl/well), and the absorbance was recorded on a microplate reader (ELx800, BioTek Instruments, VT, USA) at a wavelength of 570 nm. Each test was repeated at least four times in quadruplicates.” for “1).”

The subject of assay [8] is HL-1 cardiomyocytes. Briefly: Mitochondrial oxidative stress in HL-1 cardiomyocytes (H2O2 release, aconitase, SOD, anti-ROS genes, 8-OHdG). It counts as cell-based, mouse. The settings on record: HL-1 cells; agent alone vs untreated cells. How it is done: as §2
To investigate the mitochondrial oxidative stress, mitochondria were isolated using the Qproteome Mitochondria isolation kit (Qiagen). Mitochondrial H2O2 release was measured in the presence of horseradish peroxidase (HRP), using the Amplex Red Hydrogen Peroxide/Peroxidase Assay kit (Molecular Probes). Fluorometric measures were made using a Fusion Universal Microplate Analyzer (Packard/PerkinElmer) with excitation filter at 550 nm and emission filter at 590 nm. H2O2 production, calculated from a standard curve, was expressed as nmol/min/mg protein as described Moreover, mitochondrial aconitase and SOD activity were measured as previously described. Briefly, the formation of NADPH was followed spectrophotometrically (340 nm) at 25° C. (for aconitase activity), while SOD activity was measured with the Superoxide Dismutase Assay Kit (Calbiochem). […] Finally, the oxidative damage of DNA was measured as a further marker of oxidative stress. […] Quality and quantity of DNA were confirmed by a NanoDrop ND-1000 spectrophotometry analysis. Absorbance of the ELISA reaction product was determined spectrophotometrically using 450 nm as the primary wave.

For the compound `O=C(O)CC(O)(CC(=O)O)C(=O)O` [citric acid], in assay [1], the “mRNA levels of mitochondrial biogenesis markers (PGC-1α, NRF1, Tfam, cyt c, COX IV)” value was “unable to prevent the DOX-induced reduction of mitochondrial biogenesis as well as to change the mitochondrial gene expression when supplemented alone” and the “prevention of DOX-induced decrease of mitochondrial biogenesis marker mRNA” value is on record as “unable to prevent the DOX-induced reduction of mitochondrial biogenesis”.

Turning to `O=C(O)CC(O)C(=O)O` (centres unmarked) [malic acid], in assay [1], the “mRNA levels of mitochondrial biogenesis markers (PGC-1α, NRF1, Tfam, cyt c, COX IV)” value is listed as “unable to prevent the DOX-induced reduction of mitochondrial biogenesis as well as to change the mitochondrial gene expression when supplemented alone” and the “prevention of DOX-induced decrease of mitochondrial biogenesis marker mRNA” value is “unable to prevent the DOX-induced reduction of mitochondrial biogenesis”.

As for `COc1cccc2c1C(=O)c1c(O)c3c(c(O)c1C2=O)C[C@@](O)(C(=O)CO)C[C@@H]3O[C@H]1C[C@H](N)[C@H](O)[C@H](C)O1` [DOX, doxorubicin], the “PGC-1α and COX IV protein” value in assay [2] (Klf15 siRNA-transfected or otherwise untreated, DOX exposure) is “significantly decreased both PGC-1α and COX IV protein”. For the same compound, the “(Ser293)-BCKDH phosphorylation in Klf15 knockdown cells” value in assay [2] (Klf15 siRNA, DOX-treated and untreated) is reported as “unable to change phosphorylation”. For the same compound, the “mRNA levels of mitochondrial biogenesis markers (PGC-1α, NRF1, Tfam, cyt c, COX IV)” value in assay [1] is “decreased”. In assay [3] (agent alone), the “Klf15 mRNA levels in left ventricle” value is given as “significantly reduced”; the “Ser2481 mTOR phosphorylation in heart” value is recorded as “reduced”; the “Sestrin2 mRNA in left ventricle” value was “markedly increased”; the “eNOS activity, (Ser1177)phospho-eNOS to total eNOS ratio, in left ventricle” value is “only partially eNOS activity”. Also, the “eNOS expression in left ventricle” value in assay [3] (agent alone) was “decreased eNOS expression”. Further, in assay [3] (agent alone vs saline), the “(Ser235/236)phospho-S6 to total S6 ratio in left ventricle” value was “decreased”. Further, in assay [3] (agent alone vs saline-treated), the “(Ser293)-BCKDH phosphorylation in left ventricle” value is “unchanged”. Further, the “expression of ROS defense enzymes (SOD1, SOD2, catalase, GPX1) in left ventricle” value in assay [4] (agent alone) is “augmented the expression of ROS defense enzymes”. Moreover, in assay [4] (agent alone vs control group), the “mRNA levels of mitochondrial biogenesis genes in left ventricle” value is “reduced”. Moreover, the “mitochondrial mass and function (mtDNA amount, respiratory proteins particularly COX IV, citrate synthase activity) in left ventricle” value in assay [4] (agent alone vs saline-treated) is recorded as “lower”. Also, in assay [4] (agent alone, Clark's electrode), the “oxygen consumption rate (OCR) of mitochondria isolated from left ventricle” value is “decreased OCR”. In addition, the “(Ser293)-BCKDH phosphorylation (p-BCKDH)” value in assay [5] (DOX vs untreated, α5 with or without DOX) was “not different”. Moreover, in assay [5] (agent alone), the “(Ser235/236)-S6 phosphorylation” value is “markedly decreased”; the “(Ser 473)-Akt phosphorylation” value was “markedly reduced Akt phosphorylation”; the “KLF15 expression (mRNA and protein)” value is “reduced both at mRNA and protein levels”; the Sestrin2 expression entry is “markedly increased”. Besides, the “(Ser1177)-eNOS phosphorylation” value in assay [5] (agent alone, 1 μM DOX) is “markedly reduced”. Further, the eNOS gene expression entry in assay [5] (agent alone, 1 μM DOX or α5 1% w/v) is reported as “only slightly decreased”. The citrate synthase activity entry in assay [6] was “reduction of citrate synthase activity”. Besides, in assay [7], the “HL-1 cell survival (MTT)” value is “DOX-induced death of HL-1 cells”. Besides, in assay [8], the “8-hydroxy-2′-deoxyguanosine (8-OHdG), oxidative DNA damage” value is reported as “higher amount”; the “expression of GPX1 and SOD1 genes” value is “increased”; the “mitochondrial H2O2 release” value is “markedly increased”.

For the compound `O=C(O)CCC(=O)O` [succinic acid], in assay [1], the “mRNA levels of mitochondrial biogenesis markers (PGC-1α, NRF1, Tfam, cyt c, COX IV)” value was “unable to prevent the DOX-induced reduction of mitochondrial biogenesis as well as to change the mitochondrial gene expression when supplemented alone” and the “prevention of DOX-induced decrease of mitochondrial biogenesis marker mRNA” value is “unable to prevent the DOX-induced reduction of mitochondrial biogenesis”.
